Among the test systems are SNB-75 CNS; NCI/ADR-RES ovarian; MDA-MB-231 breast; NCI-H226 lung; COLO 205 colon; K-562 leukemia; M14 melanoma; PC-3 prostate; CAKI-1 renal; OVCAR-8 ovarian.
What all share (assay): NCI-60 cell line screen, 48 h

Experimental findings from PubChem BioAssay (NCI) are described below.

“And” between values parts separate entries of the source, which are not always exact repeats. Equal values may be shown once.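 96-well plates; 48 h exposure; 5 concentrations. Endpoints by linear interpolation between flanking doses. Not reached: highest tested concentration assigned. At the GI50, growth is halved. TGI denotes the concentration required for complete inhibition of growth.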

Consider `CCOc1ccc(-c2cnnn2-c2nonc2-n2cccc2)cc1`, for which the GI50 is 0.138 µM in the assay on SNB-75 CNS; 0.139 µM in the assay on NCI/ADR-RES ovarian; 0.337 µM with MDA-MB-231 breast; 1.52 µM in the assay on NCI-H226 lung; 0.247 µM with COLO 205 colon; 0.0638 µM with K-562 leukemia. Moreover, the GI50 with M14 melanoma was 0.122 µM; in the assay with PC-3 prostate, 0.365 µM; in the assay with CAKI-1 renal it was 0.352 µM; in the assay on OVCAR-8 ovarian it was 0.439 µM. The TGI in the assay on SNB-75 CNS is 0.527 µM; with NCI/ADR-RES ovarian it was > 38.1 µM; in the assay on MDA-MB-231 breast it was 5.03 µM; in the assay with NCI-H226 lung, > 100 µM; with COLO 205 colon, 0.808 µM; in the assay on K-562 leukemia it was > 100 µM. In addition, the TGI with M14 melanoma is 0.365 µM; in the assay on PC-3 prostate, > 100 µM; in the assay with CAKI-1 renal, > 100 µM; in the assay on OVCAR-8 ovarian it was > 100 µM.
On to `CC(C)[C@H]1CC[C@H]2[C@@H](CC[C@H]3[C@](C)(CN)CCC[C@]23C)C1`, for which the GI50 with SNB-75 CNS is 6.95 µM; in the assay with NCI/ADR-RES ovarian, 2.08 µM; in the assay on MDA-MB-231 breast, 2.05 µM; in the assay on NCI-H226 lung, 4.99 µM; with COLO 205 colon, 1.74 µM; in the assay with K-562 leukemia, 2.25 µM. The GI50 was 1.77 µM in the assay on M14 melanoma, 2.36 µM in the assay on PC-3 prostate, 1.71 µM with CAKI-1 renal and 2.61 µM in the assay on OVCAR-8 ovarian. For the same molecule, the TGI in the assay on SNB-75 CNS turned out to be 21.3 µM; in the assay on NCI/ADR-RES ovarian, 3.93 µM; in the assay with MDA-MB-231 breast, 4.51 µM; in the assay with NCI-H226 lung, 23.5 µM; in the assay on COLO 205 colon, 3.27 µM; with K-562 leukemia it was 5.31 µM. In addition, the TGI in the assay with M14 melanoma came out at 3.18 µM; in the assay on PC-3 prostate, 7.14 µM; in the assay on CAKI-1 renal, 4.2 µM; in the assay with OVCAR-8 ovarian, 5.62 µM.
In the case of `Fc1ccc(-c2nn3c(-c4ccc(F)c(Cl)c4)nnc3s2)cc1`, the GI50 in the assay with SNB-75 CNS is 11.3 µM; with NCI/ADR-RES ovarian, 23.8 µM; in the assay on MDA-MB-231 breast, 30.5 µM; in the assay with NCI-H226 lung it was > 50 µM; with COLO 205 colon, > 50 µM; in the assay with K-562 leukemia, 34.3 µM. Besides, the GI50 in the assay on M14 melanoma is > 50 µM; in the assay on PC-3 prostate, 29.1 µM; in the assay on CAKI-1 renal it was 26 µM; in the assay with OVCAR-8 ovarian, 37.1 µM. Further, the TGI in the assay with SNB-75 CNS is 30.4 µM; in the assay on NCI/ADR-RES ovarian, > 50 µM; in the assay on MDA-MB-231 breast it was > 50 µM; in the assay on NCI-H226 lung, > 50 µM; with COLO 205 colon it was > 50 µM; in the assay with K-562 leukemia, > 50 µM. The TGI in the assay on M14 melanoma, with PC-3 prostate, with CAKI-1 renal and in the assay with OVCAR-8 ovarian was > 50 µM each time.
Consider `CCC1C(=O)OCc2c1cc1n(c2=O)Cc2cc3ccccc3nc2-1` (stereo unspecified), for which the TGI with SNB-75 CNS is 25.9 µM; with NCI/ADR-RES ovarian, > 64.7 µM; in the assay with MDA-MB-231 breast, > 100 µM; in the assay on NCI-H226 lung, > 100 µM; with COLO 205 colon, > 100 µM; with K-562 leukemia, > 100 µM. Moreover, the TGI with M14 melanoma is 13.7 µM; in the assay on PC-3 prostate, > 100 µM; in the assay on CAKI-1 renal it was 16.3 µM; in the assay on OVCAR-8 ovarian it was > 70.9 µM.
Consider `CC(C)Nc1ccc(Nc2ccccc2)cc1`, for which the GI50 in the assay on SNB-75 CNS was 21.5 µM; in the assay on NCI/ADR-RES ovarian, 9.8 µM; in the assay on MDA-MB-231 breast, 8.32 µM; in the assay on NCI-H226 lung, 19.9 µM; in the assay on COLO 205 colon it was 14.3 µM; in the assay with K-562 leukemia, 15.6 µM. Besides, the GI50 in the assay on M14 melanoma is 14.9 µM; with PC-3 prostate, 9.2 µM; with CAKI-1 renal, 4.06 µM; with OVCAR-8 ovarian, 11.6 µM. The TGI in the assay with SNB-75 CNS is > 100 µM; in the assay on NCI/ADR-RES ovarian it was 65.3 µM; with MDA-MB-231 breast, 35.6 µM; with NCI-H226 lung it was 69.3 µM; with COLO 205 colon, 31.3 µM; with K-562 leukemia, 52.5 µM. Besides, the TGI worked out at 33 µM with M14 melanoma, 31.3 µM with PC-3 prostate, 17.4 µM in the assay with CAKI-1 renal and 26.5 µM with OVCAR-8 ovarian.
As for `CC(=O)Nc1ccc(/C=C/C(=O)c2ccccc2)cc1`, the GI50 is 18.2 µM in the assay on SNB-75 CNS; 17.4 µM in the assay with NCI/ADR-RES ovarian; 17.7 µM in the assay on MDA-MB-231 breast; 27.9 µM with NCI-H226 lung; 14.8 µM in the assay on COLO 205 colon; 3.28 µM with K-562 leukemia. In addition, the GI50 with M14 melanoma is 16 µM; in the assay with PC-3 prostate it was 23.2 µM; in the assay on CAKI-1 renal, 3.77 µM; in the assay on OVCAR-8 ovarian, 12.3 µM. Also, the TGI in the assay on SNB-75 CNS is 42.2 µM; in the assay with NCI/ADR-RES ovarian, 73.1 µM; with MDA-MB-231 breast, 44.6 µM; in the assay on NCI-H226 lung, > 100 µM; in the assay with COLO 205 colon, 28 µM; in the assay with K-562 leukemia, > 100 µM. The TGI in the assay on M14 melanoma is 33.3 µM; in the assay with PC-3 prostate it was 66.2 µM; with CAKI-1 renal, 16.2 µM; in the assay with OVCAR-8 ovarian, 30.4 µM.
`CCCCCCc1cc2cc(-c3nc4ccccc4[nH]3)c(=Nc3ccccc3C)oc2cc1O`: the GI50 in the assay with SNB-75 CNS was 1.41 µM; with NCI/ADR-RES ovarian it was 4.24 µM; in the assay on MDA-MB-231 breast, 2.37 µM; with NCI-H226 lung it was 2.55 µM; in the assay on COLO 205 colon, > 100 µM; in the assay with K-562 leukemia, 3.1 µM. In addition, the GI50 in the assay on M14 melanoma was 1.85 µM; with PC-3 prostate, 2.3 µM; with CAKI-1 renal, 2.36 µM; with OVCAR-8 ovarian, 2.26 µM. The TGI in the assay on SNB-75 CNS is 3.49 µM; with NCI/ADR-RES ovarian it was 22.7 µM; in the assay on MDA-MB-231 breast it was 6.4 µM; in the assay with NCI-H226 lung, 10.3 µM; in the assay with COLO 205 colon, > 100 µM; in the assay with K-562 leukemia it was 9.29 µM. Further, the TGI stood at 3.6 µM in the assay with M14 melanoma, 7.98 µM in the assay with PC-3 prostate, 9.74 µM in the assay with CAKI-1 renal and 6.05 µM with OVCAR-8 ovarian.
`CCC[CH2][Sn]([CH2]CCC)([O]C(=O)c1cc(F)ccc1F)[O][Sn]([CH2]CCC)([CH2]CCC)[O]C(=O)c1cc(F)ccc1F`: the GI50 in the assay with SNB-75 CNS is 0.365 µM; in the assay with NCI/ADR-RES ovarian it was 0.522 µM; in the assay on MDA-MB-231 breast it was 0.436 µM; in the assay on NCI-H226 lung it was 0.354 µM; in the assay on COLO 205 colon it was 0.413 µM; with K-562 leukemia it was 0.0372 µM. Further, the GI50 is 0.367 µM in the assay with M14 melanoma, 0.759 µM in the assay on PC-3 prostate, 0.129 µM in the assay with CAKI-1 renal and 0.374 µM with OVCAR-8 ovarian. The TGI was found to be 1.66 µM in the assay with SNB-75 CNS; 1.88 µM in the assay with NCI/ADR-RES ovarian; 1.63 µM with MDA-MB-231 breast; 1.25 µM with NCI-H226 lung; 1.2 µM in the assay on COLO 205 colon; 6.22 µM in the assay with K-562 leukemia. Also, the TGI in the assay with M14 melanoma was 1.25 µM; in the assay on PC-3 prostate, 2.01 µM; with CAKI-1 renal, 0.621 µM; with OVCAR-8 ovarian it was 1.57 µM.
On to `Cc1ccc2c(c1)c1nc3cc(C)c(C)cc3nc1n2CCN(C)C`, for which the GI50 is 1.5 µM in the assay with SNB-75 CNS; 1.15 µM in the assay with NCI/ADR-RES ovarian; 2.11 µM in the assay with MDA-MB-231 breast; 1.86 µM in the assay on NCI-H226 lung; 1.24 µM with COLO 205 colon; 2.6 µM with K-562 leukemia. Moreover, the GI50 was 1.78 µM in the assay on M14 melanoma, 2.32 µM with PC-3 prostate, 1.33 µM in the assay on CAKI-1 renal and 1.73 µM with OVCAR-8 ovarian. In addition, the TGI with SNB-75 CNS came to 6.41 µM; in the assay with NCI/ADR-RES ovarian, 5.42 µM; with MDA-MB-231 breast, 8.5 µM; in the assay on NCI-H226 lung, 4.69 µM; in the assay with COLO 205 colon it was 4.6 µM; in the assay with K-562 leukemia, 50.3 µM. Moreover, the TGI with M14 melanoma is 3.92 µM; in the assay with PC-3 prostate, 6.82 µM; in the assay on CAKI-1 renal it was 4.46 µM; with OVCAR-8 ovarian, 8.29 µM.
Turning to `S=C(N/N=C(/c1ccccc1)c1ccccn1)N1CCCCC1`, the TGI is 2.92 µM in the assay on SNB-75 CNS; 1.87 µM and 0.986 µM in the assay on NCI/ADR-RES ovarian; 2.42 µM and 2.21 µM with MDA-MB-231 breast; < 0.001 µM in the assay with K-562 leukemia; 1.66 µM and 0.543 µM in the assay on M14 melanoma; 1.6 µM and 4.08 µM in the assay with PC-3 prostate. Further, the TGI in the assay on CAKI-1 renal was 1.66 µM and 2.33 µM; in the assay on OVCAR-8 ovarian, 1.96 µM and 1.69 µM. The GI50 in the assay with NCI/ADR-RES ovarian is < 0.001 µM; with MDA-MB-231 breast, < 0.001 µM; in the assay with NCI-H226 lung, 0.00148 µM; with COLO 205 colon it was < 0.001 µM; in the assay with K-562 leukemia, < 0.001 µM; in the assay with PC-3 prostate, < 0.001 µM. Also, the GI50 with CAKI-1 renal is 0.107 µM; in the assay with OVCAR-8 ovarian, < 0.001 µM.
Turning to `N=C(N)c1ccc(OCCOCCOc2ccc(C(=N)N)cc2)cc1`, the GI50 in the assay with SNB-75 CNS was > 100 µM; in the assay with NCI/ADR-RES ovarian it was > 100 µM; in the assay with MDA-MB-231 breast, > 100 µM; in the assay with NCI-H226 lung it was > 100 µM; with COLO 205 colon, 50.1 µM; in the assay with K-562 leukemia, 63.3 µM. In addition, the GI50 is > 100 µM in the assay with M14 melanoma, > 100 µM in the assay on PC-3 prostate, > 100 µM in the assay with CAKI-1 renal and 31.4 µM in the assay on OVCAR-8 ovarian. In addition, the TGI in the assay with SNB-75 CNS, in the assay with NCI/ADR-RES ovarian, in the assay with MDA-MB-231 breast, in the assay with NCI-H226 lung, in the assay with COLO 205 colon and in the assay on K-562 leukemia was > 100 µM each time. In addition, the TGI in the assay with M14 melanoma, in the assay with PC-3 prostate, in the assay on CAKI-1 renal and with OVCAR-8 ovarian was > 100 µM each time.
